# Test system: Helicoverpa armigera larvae (third instar)
# Test: Bioassay of meroterpenoid using H. armigera larvae (cotton leaf dip feeding)
# Type: in vivo
# Conditions: for Mortality (%) / Survival (%): treated cotton leaves, recorded up to 6 days
# Description: The cotton Bollworm, Helicoverpa armigera is considered as one of the major threats to present day intensive agriculture. […] Cotton leaves were surface sterilized with 0.5% sodium hypochlorite, rinsed in sterile water and shade dried. The leaves were dipped in respective concentration of the insecticide for 30 seconds and then they were drained and dried at room temperature. The turgidity was maintained by surrounding the petiole with cotton wool saturated with water. The petioles of the leaves with cotton swab were kept immersed in water and were used control. The entire setup was kept enclosed in mylar film cage and Helicoverpa armigera larvae (third instar) of 30-40 milligrams weight were allowed to feed. Mortality rate was recorded at 24 hours intervals up to 6 days.
smiles,measurement,setting,value
"COc1ccc(-c2cc3c(c(=O)o2)C[C@@]2(O)[C@@]4(C)C(=O)[C@@]5(OC)C(=O)O[C@]4(CC[C@@]2(C)O3)C5(C)C)cc1 [Terreulactone A, terreulactone A]",Mortality (%),2.5 μg terreulactone A,52.5%
same,Survival (%),2.5 μg terreulactone A,47.5%
same,Mortality (%),5.0 μg terreulactone A,62.5%
same,Survival (%),5.0 μg terreulactone A,37.5%
same,Mortality (%),10 μg terreulactone A,82.5%
same,Survival (%),10 μg terreulactone A,17.5%
same,mortality rate of the larval pests (in words),larval pests fed on treated plant or plant parts,increased the mortality rate

# — patent US8383128B2, “Method of protecting plant(s) and a process thereof” (priority 2008, dated 2013)
